Read-outs that look alike come from different tables or passages of the source.
What was measured:
Format in all cases: cell-based
[1] = biological target: T1, cytochrome bd-I (bd-I-only E. coli cells) (Escherichia coli, UniProt P0ABJ9); assay: O2 consumption (aerobic respiration) of bd-I-only E. coli cell suspensions
T1 construct: the oxidases were in vivo conditions, i.e., integrated into native bacterial membranes; endogenous in cells; host or cells: E. coli TBE037 (MG1655 ΔappB nuoB cyoB::kan); whole cells (A1) or membranes isolated from them (A5)
T1 sequence (P0ABJ9 whole entry): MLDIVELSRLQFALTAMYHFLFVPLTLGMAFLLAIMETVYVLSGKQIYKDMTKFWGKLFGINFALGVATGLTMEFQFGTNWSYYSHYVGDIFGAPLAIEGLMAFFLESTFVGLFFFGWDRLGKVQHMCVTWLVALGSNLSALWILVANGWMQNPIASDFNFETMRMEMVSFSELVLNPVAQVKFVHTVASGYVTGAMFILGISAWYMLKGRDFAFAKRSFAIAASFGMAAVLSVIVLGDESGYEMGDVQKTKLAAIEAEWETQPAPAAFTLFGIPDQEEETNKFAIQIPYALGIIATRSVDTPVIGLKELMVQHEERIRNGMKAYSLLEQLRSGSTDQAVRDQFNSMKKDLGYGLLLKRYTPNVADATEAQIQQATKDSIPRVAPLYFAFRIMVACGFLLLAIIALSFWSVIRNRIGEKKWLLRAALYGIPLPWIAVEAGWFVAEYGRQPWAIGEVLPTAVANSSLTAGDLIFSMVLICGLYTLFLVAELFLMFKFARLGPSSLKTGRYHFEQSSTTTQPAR
T1 sequence (P0ABK2 whole entry partner): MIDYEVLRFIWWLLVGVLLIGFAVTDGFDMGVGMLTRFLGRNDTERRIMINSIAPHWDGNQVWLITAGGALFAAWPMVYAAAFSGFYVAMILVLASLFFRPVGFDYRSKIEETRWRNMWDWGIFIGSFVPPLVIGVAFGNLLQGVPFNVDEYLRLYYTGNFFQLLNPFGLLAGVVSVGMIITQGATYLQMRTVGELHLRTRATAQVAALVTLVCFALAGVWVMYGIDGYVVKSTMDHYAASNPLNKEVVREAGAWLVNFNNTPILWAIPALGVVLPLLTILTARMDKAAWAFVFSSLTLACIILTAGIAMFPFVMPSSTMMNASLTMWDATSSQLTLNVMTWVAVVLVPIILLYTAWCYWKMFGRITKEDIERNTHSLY
T1 sequence (P56100 whole entry partner): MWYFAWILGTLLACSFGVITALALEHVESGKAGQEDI
T1 sequence (A5A618 whole entry partner): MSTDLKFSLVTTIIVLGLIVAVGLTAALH
Method: (§1) The CO and N2 gases were purchased from Linde (Danbury, CT, USA) and Air Liquide (Air Liquide Italia Spa, Milano, Italy), respectively. Other chemicals were purchased from Merck KGaA (Darmstadt, Germany). A stock solution of CO or N2 was prepared by equilibrating degassed water with the pure gas at 1 atm and room temperature, yielding 1 mM CO and 0.7 mM N2 in solution. E. coli respiratory mutant strains TBE025 (MG1655 ΔcydB nuoB appB::kan), TBE026 (MG1655 ΔcydB nuoB cyoB::kan), and TBE037 (MG1655 ΔappB nuoB cyoB::kan), which respectively express cytochrome bo3, cytochrome bd-II, or cytochrome bd-I as the sole terminal oxidase, were used. E. coli cultures were grown in Luria–Bertani (LB) medium supplemented with 30 μg/mL kanamycin, at 37 °C and 200 rpm. In the case of growth studies, after inoculation at an OD600 of 0.15 ± 0.03, the cells were grown in 50 mL rubber-stoppered flasks in 16 mL of air-equilibrated LB at 37 °C for 60 min; when OD600 reached 0.4 ± 0.08, they were bubbled for 30 s with either CO (pure gas at 1 atm and room temperature) or N2 (pure gas at 1 atm and room temperature) as a control to yield a final concentration of both gases of ~20%. The gas percentage was assessed by taking into account the different O2 concentrations, present in equal volumes of LB equilibrated with air or flushed with CO/N2 for 30 s, and calculated according to the following equation: Gas % = ([O2] air equilibrated − [O2] gas flushed)/[O2] air equilibrated × 100. [O2] air equilibrated and [O2] gas flushed are the O2 concentration values measured in the degassed chamber of a high-resolution respirometer (Oxygraph-2k, Oroboros Instruments GmbH, Innsbruck, Austria) of non-fluxed and fluxed E. coli cultures with CO or N2, respectively. The growth of the E. coli cultures was then monitored via a standard method using optical density measurements in an Eppendorf BioSpectrometer basic at 600 nm every 30 min. When the OD600 was above 1, cultures were diluted before reading.
Oxygraphic measurements were performed at 25 °C in 50 mM K/phosphate pH 7.0, using a high-resolution respirometer (Oxygraph-2k, Oroboros Instruments GmbH, Innsbruck, Austria) equipped with two 1.5-mL chambers. […] In the case of isolated membranes, O2 consumption was measured in the presence of 2.5 mM dithiothreitol (DTT) and 2.5 μM 2,3-dimethoxy-5-methyl-6-(3-methyl-2-butenyl)-1,4-benzoquinone (Q1), an artificial reducing couple specific for quinol oxidases. The catalytic O2-consuming activity was obtained by subtracting the non-enzymatic O2 consumption (Q1/DTT autoxidation in the absence of the membranes) from the O2 consumption rate measured after the addition of membranes.
UV–visible absorption spectra were recorded to estimate the amount of each terminal oxidase present in cell suspensions. […]

[2] = biological target: T2, cytochrome bd-II (bd-II-only E. coli cells) (Escherichia coli, UniProt P26459); assay: O2 consumption (aerobic respiration) of bd-II-only E. coli cell suspensions; conditions: for IC50: read-out: apparent IC50
T2 construct: the oxidases were in vivo conditions, i.e., integrated into native bacterial membranes; endogenous in cells; host or cells: E. coli TBE026 (MG1655 ΔcydB nuoB cyoB::kan); whole cells (A2) or membranes isolated from them (A6)
T2 sequence (P26459 whole entry): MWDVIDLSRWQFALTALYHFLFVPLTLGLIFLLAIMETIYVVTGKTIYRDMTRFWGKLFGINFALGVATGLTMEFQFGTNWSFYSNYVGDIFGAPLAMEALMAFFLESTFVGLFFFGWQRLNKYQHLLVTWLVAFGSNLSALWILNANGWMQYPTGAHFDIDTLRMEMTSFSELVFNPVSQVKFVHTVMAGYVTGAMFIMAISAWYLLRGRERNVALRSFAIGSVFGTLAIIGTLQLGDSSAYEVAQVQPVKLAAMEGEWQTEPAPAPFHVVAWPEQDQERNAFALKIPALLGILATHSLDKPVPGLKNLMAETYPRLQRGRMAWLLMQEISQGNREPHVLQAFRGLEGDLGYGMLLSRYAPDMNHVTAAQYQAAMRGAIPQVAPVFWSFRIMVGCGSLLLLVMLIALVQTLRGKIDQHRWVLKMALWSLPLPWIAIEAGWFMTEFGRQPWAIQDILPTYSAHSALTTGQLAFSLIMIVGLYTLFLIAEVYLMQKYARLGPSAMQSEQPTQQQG
T2 sequence (P26458 whole entry partner): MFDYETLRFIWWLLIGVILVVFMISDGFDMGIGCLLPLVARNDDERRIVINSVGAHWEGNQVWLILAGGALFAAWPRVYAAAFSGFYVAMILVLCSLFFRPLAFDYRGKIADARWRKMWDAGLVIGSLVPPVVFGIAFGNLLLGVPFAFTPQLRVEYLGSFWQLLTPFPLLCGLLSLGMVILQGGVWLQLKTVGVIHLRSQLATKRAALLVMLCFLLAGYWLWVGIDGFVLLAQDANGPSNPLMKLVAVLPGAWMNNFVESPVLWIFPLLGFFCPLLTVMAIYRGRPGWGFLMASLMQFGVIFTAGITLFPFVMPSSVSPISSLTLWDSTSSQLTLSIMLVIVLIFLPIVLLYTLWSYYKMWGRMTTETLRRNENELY
T2 sequence (P24244 whole entry partner): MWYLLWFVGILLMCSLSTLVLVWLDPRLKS
Method: as §1
(§2) Oxygraphic measurements were performed at 25 °C in 50 mM K/phosphate pH 7.0, using a high-resolution respirometer (Oxygraph-2k, Oroboros Instruments GmbH, Innsbruck, Austria) equipped with two 1.5-mL chambers. The O2 consumption of E. coli cells was followed with endogenous reductants. In the case of isolated membranes, O2 consumption was measured in the presence of 2.5 mM dithiothreitol (DTT) and 2.5 μM 2,3-dimethoxy-5-methyl-6-(3-methyl-2-butenyl)-1,4-benzoquinone (Q1), an artificial reducing couple specific for quinol oxidases. The catalytic O2-consuming activity was obtained by subtracting the non-enzymatic O2 consumption (Q1/DTT autoxidation in the absence of the membranes) from the O2 consumption rate measured after the addition of membranes.
(§3) UV–visible absorption spectra were recorded to estimate the amount of each terminal oxidase present in cell suspensions. For this purpose, an Agilent Cary 60 UV-Vis or a Varian Cary 300 Bio UV-Visible spectrophotometer was used.
(§4) Data analysis was carried out using software packages Origin v7.0 (OriginLab Corporation, Northampton, MA, USA) and GIM (Scientific Graphic Interactive Management System developed by A.L. Drachev in Lomonosov Moscow State University). The percentage inhibition of O2 consumption of cell suspensions (i%) was calculated using the equation i% = ((V0 − V0,i)/V0)·100, where V0 and V0,i are the initial rates in the absence and in the presence of the inhibitor (CO), respectively. The apparent IC50 values of cytochromes bd-II and bo3 for CO were estimated by plotting i% as a function of CO concentration added ([CO]0). The data were fitted to the standard hyperbolic equation i% = imax%·[CO]0/(IC50 + [CO]0) using a built-in approximation function (‘Hyperbola function’) in ‘Advanced Fitting tool’ in the Origin program. The imax% parameter is a theoretical maximum percent inhibition. […]

[3] = biological target: T3, cytochrome bo3 (bo3-only E. coli cells) (Escherichia coli, UniProt P0ABI8); assay: O2 consumption (aerobic respiration) of bo3-only E. coli cell suspensions
T3 construct: the oxidases were in vivo conditions, i.e., integrated into native bacterial membranes; endogenous in cells; host or cells: E. coli TBE025 (MG1655 ΔcydB nuoB appB::kan); whole cells (A3) or membranes isolated from them (A7)
T3 sequence (P0ABI8 whole entry): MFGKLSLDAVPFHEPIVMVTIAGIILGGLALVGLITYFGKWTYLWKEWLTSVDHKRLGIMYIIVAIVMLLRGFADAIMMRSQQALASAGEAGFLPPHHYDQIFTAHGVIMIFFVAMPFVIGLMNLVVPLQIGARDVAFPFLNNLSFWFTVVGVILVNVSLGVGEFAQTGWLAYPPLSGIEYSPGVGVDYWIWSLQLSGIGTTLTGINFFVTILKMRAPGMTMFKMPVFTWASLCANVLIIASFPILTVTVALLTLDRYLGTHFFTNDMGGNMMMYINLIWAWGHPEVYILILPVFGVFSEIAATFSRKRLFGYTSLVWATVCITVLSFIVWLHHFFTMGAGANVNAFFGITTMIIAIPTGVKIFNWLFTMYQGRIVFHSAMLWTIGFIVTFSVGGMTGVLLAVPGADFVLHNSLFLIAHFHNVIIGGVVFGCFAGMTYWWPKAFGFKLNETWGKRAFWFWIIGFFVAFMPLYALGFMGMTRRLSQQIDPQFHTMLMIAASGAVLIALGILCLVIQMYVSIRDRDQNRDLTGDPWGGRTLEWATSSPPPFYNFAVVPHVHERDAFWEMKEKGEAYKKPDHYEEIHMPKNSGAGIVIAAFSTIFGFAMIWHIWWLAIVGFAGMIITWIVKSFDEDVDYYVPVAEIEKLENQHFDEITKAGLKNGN
T3 sequence (P0ABJ1 25-315 partner): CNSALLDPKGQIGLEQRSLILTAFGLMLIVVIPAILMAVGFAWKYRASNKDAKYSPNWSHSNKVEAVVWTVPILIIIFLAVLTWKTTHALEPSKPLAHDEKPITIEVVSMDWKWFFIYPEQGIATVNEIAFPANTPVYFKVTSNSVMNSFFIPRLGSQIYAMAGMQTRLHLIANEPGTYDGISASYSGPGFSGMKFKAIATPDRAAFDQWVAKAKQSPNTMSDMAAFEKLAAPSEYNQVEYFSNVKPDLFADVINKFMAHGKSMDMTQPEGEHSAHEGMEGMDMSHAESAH
T3 sequence (P0ABJ3 whole entry partner): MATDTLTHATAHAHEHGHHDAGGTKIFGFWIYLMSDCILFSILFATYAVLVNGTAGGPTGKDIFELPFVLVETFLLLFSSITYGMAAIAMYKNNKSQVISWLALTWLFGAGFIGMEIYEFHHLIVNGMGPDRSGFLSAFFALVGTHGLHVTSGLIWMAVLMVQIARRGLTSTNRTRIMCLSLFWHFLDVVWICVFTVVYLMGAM
T3 sequence (P0ABJ6 whole entry partner): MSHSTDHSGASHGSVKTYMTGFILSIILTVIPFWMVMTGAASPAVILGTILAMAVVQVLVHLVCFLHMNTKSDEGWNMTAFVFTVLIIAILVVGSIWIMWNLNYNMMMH
Method: as §1, §2, §3, §4

[4] = 196.3 μM CO added at [O2] = 50 μM
[5] = 196.3 μM CO added at [O2] = 100 μM
[6] = 196.3 μM CO added at [O2] = 200 μM

`[C-]#[O+]` [CO, Carbon monoxide] was tested, and the “inhibition of O2 consumption” value ([1]; 96.3 μM CO added at [O2] = 100 μM, bd-I-only cells) was 11.6 ± 1.1%, the “maximum inhibition percentage of respiration” value (from here on “maximum inhibition percentage”) [1, 4] was 39.6 ± 4.5% and the “maximum inhibition percentage” value [1, 5] was 18.0 ± 7.8%. The “maximum inhibition percentage” value [1, 6] was 9.7 ± 4.9%, the “inhibition of O2 consumption” value ([2]; 96.3 μM CO added at [O2] = 100 μM, bd-II-only cells) was 43.3 ± 7.6% and the “maximum inhibition percentage” value [2, 4] was 59.3 ± 11.5%. The “maximum inhibition percentage” value [2, 5] was 50.0 ± 3.6%, the “maximum inhibition percentage” value [2, 6] was 47.0 ± 6.0% and the IC50 ([2]; CO added at [O2] = 50 μM) was 88.6 ± 9.3 µM. It also gave an IC50 ([2]; CO added at [O2] = 100 μM) of 170 ± 15 µM, an IC50 ([2]; CO added at [O2] = 200 μM) of 230 ± 12 µM and a Ki ([2]; estimated from IC50 values at different [O2], assuming competitive inhibition, Km(O2) 2 µM) of 2.5 ± 0.2 µM. For the same compound, the “inhibition of O2 consumption” value ([3]; 96.3 μM CO added at [O2] = 100 μM, bo3-only cells) was 44.3 ± 1.5%, the “maximum inhibition percentage” value [3, 4] was 85.6 ± 3.7% and the “maximum inhibition percentage” value [3, 5] was 65.3 ± 17.2%. For the same compound, the “maximum inhibition percentage” value [3, 6] was 39.7 ± 11.5% and the IC50 ([3]; CO added at [O2] = 50 μM, read-out: apparent IC50) was 66.5 ± 10 µM.

Source: article PMC10815991, “Membrane-Bound Redox Enzyme Cytochrome bd-I Promotes Carbon Monoxide-Resistant Escherichia coli Growth and Respiration” (International Journal of Molecular Sciences, 2024)
